Assay results taken from PubChem BioAssay (NCI).
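Dose response: 5 concentrations. Exposure: 48 h. Format: 96-well plates. Endpoint: linear interpolation; highest concentration if not reached. Abbreviation: GI50, concentration required for 50% inhibition of growth. TGI is the concentration that stops growth completely.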

Key:
Assay in all cases: growth of human tumour cells (NCI), 48 h
NCI-H23 lung = system: NCI-H23 lung
UACC-62 melanoma = system: UACC-62 melanoma
MOLT-4 leukemia = system: MOLT-4 leukemia
T-47D breast = system: T-47D breast
ACHN renal = system: ACHN renal
COLO 205 colon = system: COLO 205 colon
KM12 colon = system: KM12 colon
SK-MEL-5 melanoma = system: SK-MEL-5 melanoma
NCI-H522 lung = system: NCI-H522 lung
HL-60(TB) leukemia = system: HL-60(TB) leukemia

CCOC(=O)c1ccc2c(c1)[n+](=O)c(C(C)=O)c(C(F)(F)F)n2[O-]
GI50 (NCI-H23 lung): 1.54 µM
TGI (NCI-H23 lung): 3.43 µM
GI50 (UACC-62 melanoma): 1.49 µM
TGI (UACC-62 melanoma): 3.46 µM
GI50 (MOLT-4 leukemia): 1.31 µM
TGI (MOLT-4 leukemia): 3.97 µM
GI50 (T-47D breast): 1.29 µM
TGI (T-47D breast): 3.06 µM
GI50 (ACHN renal): 1.59 µM
TGI (ACHN renal): 3.01 µM
GI50 (COLO 205 colon): 1.54 µM
TGI (COLO 205 colon): 3 µM
GI50 (KM12 colon): 1.47 µM
TGI (KM12 colon): 2.89 µM
GI50 (SK-MEL-5 melanoma): 1.5 µM
TGI (SK-MEL-5 melanoma): 2.84 µM
GI50 (NCI-H522 lung): 1.8 µM
TGI (NCI-H522 lung): 3.84 µM
GI50 (HL-60(TB) leukemia): 1.44 µM
TGI (HL-60(TB) leukemia): 3.08 µM

COc1cccc2c1C(=O)OC2c1cccc2ccccc12 (stereo not given)
TGI (NCI-H23 lung): > 100 µM
TGI (UACC-62 melanoma): > 100 µM
TGI (MOLT-4 leukemia): > 100 µM
TGI (T-47D breast): > 100 µM
TGI (ACHN renal): > 100 µM
TGI (COLO 205 colon): > 100 µM
TGI (KM12 colon): > 100 µM
TGI (SK-MEL-5 melanoma): > 100 µM
TGI (NCI-H522 lung): > 100 µM
TGI (HL-60(TB) leukemia): > 100 µM

O=C(CC(=O)c1cccc(Cl)c1)c1cccc(Cl)c1
GI50 (NCI-H23 lung): 1.91 µM
TGI (NCI-H23 lung): > 100 µM
GI50 (UACC-62 melanoma): 2.82 µM
TGI (UACC-62 melanoma): > 100 µM
GI50 (MOLT-4 leukemia): 2.08 µM
TGI (MOLT-4 leukemia): > 100 µM
GI50 (T-47D breast): 2.53 µM
TGI (T-47D breast): > 100 µM
GI50 (ACHN renal): 2.71 µM
TGI (ACHN renal): > 100 µM
GI50 (COLO 205 colon): 3.97 µM
TGI (COLO 205 colon): > 100 µM
GI50 (KM12 colon): 3.02 µM
TGI (KM12 colon): > 100 µM
GI50 (SK-MEL-5 melanoma): 3.87 µM
TGI (SK-MEL-5 melanoma): > 100 µM
GI50 (NCI-H522 lung): 2.72 µM
TGI (NCI-H522 lung): > 100 µM
GI50 (HL-60(TB) leukemia): 1.99 µM
TGI (HL-60(TB) leukemia): > 100 µM

Cc1cccc(NC(=O)/C=C/c2ccc([N+](=O)[O-])cc2)c1
TGI (NCI-H23 lung): 31.7 µM
TGI (UACC-62 melanoma): > 58.5 µM
TGI (MOLT-4 leukemia): > 65.4 µM
TGI (T-47D breast): > 55.9 µM
TGI (ACHN renal): 28.8 µM
TGI (COLO 205 colon): > 56.3 µM
TGI (KM12 colon): > 52.8 µM
TGI (SK-MEL-5 melanoma): > 51 µM
TGI (NCI-H522 lung): > 53.9 µM
TGI (HL-60(TB) leukemia): > 24.8 µM

Oc1[nH]c2ccccc2c1N=Nc1c(F)c(F)c(F)c(F)c1F
TGI (NCI-H23 lung): > 100 µM
TGI (UACC-62 melanoma): > 100 µM
TGI (MOLT-4 leukemia): 31.8 µM
TGI (T-47D breast): > 74.7 µM
TGI (ACHN renal): 36.8 µM
TGI (COLO 205 colon): 28.3 µM
TGI (KM12 colon): > 61.9 µM
TGI (SK-MEL-5 melanoma): > 100 µM
TGI (NCI-H522 lung): 47.7 µM
TGI (HL-60(TB) leukemia): 9.15 µM

CCS(=O)(=O)c1ccc(OC)c(Nc2ncc(-c3ccccc3Cl)o2)c1
GI50 (NCI-H23 lung): 7.89 µM
TGI (NCI-H23 lung): > 25 µM
GI50 (UACC-62 melanoma): 11.3 µM
TGI (UACC-62 melanoma): > 25 µM
GI50 (MOLT-4 leukemia): 14.1 µM
TGI (MOLT-4 leukemia): > 25 µM
GI50 (T-47D breast): 8.57 µM
TGI (T-47D breast): > 25 µM
GI50 (ACHN renal): > 19.1 µM
TGI (ACHN renal): > 25 µM
GI50 (COLO 205 colon): 6.67 µM
TGI (COLO 205 colon): 15.4 µM
GI50 (KM12 colon): 7.59 µM
TGI (KM12 colon): > 25 µM
GI50 (SK-MEL-5 melanoma): 7.4 µM
TGI (SK-MEL-5 melanoma): > 19.4 µM
GI50 (NCI-H522 lung): 8.95 µM
TGI (NCI-H522 lung): > 25 µM
GI50 (HL-60(TB) leukemia): 11.8 µM
TGI (HL-60(TB) leukemia): > 21.5 µM

Cc1cn(-c2ccc(S(C)(=O)=O)cc2)c(-c2ccc(Cl)cc2)n1
GI50 (NCI-H23 lung): > 100 µM
TGI (NCI-H23 lung): > 100 µM
GI50 (UACC-62 melanoma): > 100 µM
TGI (UACC-62 melanoma): > 100 µM
GI50 (MOLT-4 leukemia): > 100 µM
TGI (MOLT-4 leukemia): > 100 µM
GI50 (T-47D breast): > 100 µM
TGI (T-47D breast): > 100 µM
GI50 (ACHN renal): > 100 µM
TGI (ACHN renal): > 100 µM
GI50 (COLO 205 colon): > 100 µM
TGI (COLO 205 colon): > 100 µM
GI50 (KM12 colon): > 100 µM
TGI (KM12 colon): > 100 µM
GI50 (SK-MEL-5 melanoma): > 100 µM
TGI (SK-MEL-5 melanoma): > 100 µM
GI50 (NCI-H522 lung): > 100 µM
TGI (NCI-H522 lung): > 100 µM
GI50 (HL-60(TB) leukemia): > 100 µM
TGI (HL-60(TB) leukemia): > 100 µM

COc1ccc(C(CC(=O)c2ccccc2)C(C(=O)c2ccccc2)C(c2ccc(OC)cc2)C2C(=O)NC(=S)NC2=O)cc1 (stereo not given)
GI50 (NCI-H23 lung): 14.3 µM
TGI (NCI-H23 lung): 46.6 µM
GI50 (UACC-62 melanoma): 13.3 µM
TGI (UACC-62 melanoma): 34 µM
GI50 (MOLT-4 leukemia): 11.4 µM
TGI (MOLT-4 leukemia): > 100 µM
GI50 (T-47D breast): 13.2 µM
TGI (T-47D breast): > 100 µM
GI50 (ACHN renal): 12.3 µM
TGI (ACHN renal): 50.9 µM
GI50 (COLO 205 colon): 8.86 µM
TGI (COLO 205 colon): > 100 µM
GI50 (KM12 colon): 8.12 µM
TGI (KM12 colon): 39.8 µM
GI50 (SK-MEL-5 melanoma): 10.5 µM
TGI (SK-MEL-5 melanoma): 22.7 µM
GI50 (NCI-H522 lung): 11.9 µM
TGI (NCI-H522 lung): 35.1 µM
GI50 (HL-60(TB) leukemia): 20.1 µM
TGI (HL-60(TB) leukemia): > 100 µM
